Results on 18 compounds are retold here after patent US9133230B2, “Hydrazone derivatives having potent antitumor activity toward multi-drug resistant tumor cells” (THE UNITED STATES OF AMERICA AS REPRESENTED BY THE …, priority 2011, dated 2015).

A value given as a limit tells only on which side of the number the result lay.

The term GI50 denotes the concentration that inhibits growth by half. Higher therefore signals less potent growth inhibition.

Common to all, as to assay type: cell-based
Data set [1] relates to human myelogenous leukemia K562. As to the kind of experiment: MTS cytotoxicity assay, K562. The procedure: (§1) In order to obtain information about the growth-inhibiting action of hydrazones reported in the present invention on tumor cells, growth inhibition was assessed for the following human tumor cell lines: human myelogenous leukemia K562, human cervical adenocarcinoma HeLa, human colon adenocarcinoma Caco-2, human colon carcinoma HT-29, human colon carcinoma HCT-15, and human breast carcinoma MCF-7.
(§2) The K562, HeLa, HT-29, HCT-15, Caco-2, and MCF-7 cell lines were obtained from the American type Culture Collection (ATCC, Manassas, Va.). K562 cells were maintained in RPMI 1640 medium (Gibco/Life Technologies, Gaithersburg, Md.) containing 10% heat-inactivated fetal bovine serum (FBS) (Atlanta Biologicals, Atlanta, Ga.) and 10000 U/L penicillin and 50 mg/L streptomycin. HeLa, HT-29, HCT-15, Caco-2 and MCF-7 cells were maintained in MEM with Earl's balanced salts, 10% FBS, penicillin, and streptomycin as above. Logarithmically growing HT-29, Caco-2, and MCF-7 cells were incubated with 0.05% trypsin containing 1 mM EDTA at 37° C. for about 5 min until cells were nonadherent and formed a single cell suspension. Trypsin activity was neutralized by adding 20-fold excess of the serum-containing medium. Cells were cultured at 37° C. in an atmosphere of air and 5% CO2.
(§3) Cytotoxicity assays were conducted by tetrazolium reduction of 3-(4,5-dimethylthiazol-2-yl)-5-(3-carboxymethoxyphenyl)-2-(4-sulfophenyl)-2H-tetrazolium (MTS) with N-methylphenazonium methyl sulfate (PMS) (CellTiter Assay, Promega, Madison, Wis.). Logarithmically growing cells were plated in 0.1 mL aliquots in 96-well microtiter plates. Cells were plated at an initial density of about 5000 cells/mL and allowed to acclimatize for 24 h. Cell suspensions were treated with various dilutions of compounds in triplicate, mixed well, and allowed to incubate for 48 h at 37° C. in an atmosphere of air and 5% CO2. To the cell suspension was added 20 μL of tetrazolium reagent, the mixture was incubated for 2 h at 37° C. in an atmosphere of air and 5% CO2, and absorbance at 490 nm was read by microplate reader. Control plates with serial dilutions of cell types were counted as a control for the assay. In all cases, controls indicated a linear response versus cell number, R^2≧0.99.
In general terms: Tetrazolium assays rely on reduction of a dye to a coloured formazan, in cell work by metabolically active cells.

Data set [2] deals with human cervical adenocarcinoma HeLa. As to the kind of experiment: MTS cytotoxicity assay, HeLa. To be noted: 48 h incubation. On the procedure: as §1, §2, §3
Data set [3] concerns human colon carcinoma HT-29. As to the kind of experiment: MTS cytotoxicity assay, HT-29. The procedure:
as §1, §2, §3

Data set [4] deals with human colon adenocarcinoma Caco-2. As to the kind of experiment: MTS cytotoxicity assay, Caco-2. The procedure:
as §1, §2, §3

The subject of data set [5] is human breast carcinoma MCF-7. As to the kind of experiment: MTS cytotoxicity assay, MCF-7. On the procedure: as §1, §2, §3
The subject of data set [6] is human colon carcinoma HCT-15. As to the kind of experiment: MTS cytotoxicity assay, HCT-15. On the procedure: as §1, §2, §3
[7] abbreviates: Homo sapiens, K562, 48 h incubation.
The mark [8] stands for this setting: Homo sapiens, HT-29, 48 h incubation.
The mark [9] stands for this setting: Homo sapiens, Caco-2, 48 h incubation.
The mark [10] stands for this setting: Homo sapiens, MCF7, 48 h incubation.
[11] abbreviates: Homo sapiens, HCT-15, 48 h incubation.

Turning to “6-(2-(Dipyridin-2-yl)methylene)hydrazinyl)-9-methyl-9H-purine [I-23]”, the concentration for 50% growth inhibition (GI50) in data set [1] (48 h incubation) was determined as 0.9 µM.

As to `C[C@]1(O)C(O)[C@H](n2cnc3c(NN=C(c4ccccc4)c4ccccn4)ncnc32)O[C@@H]1CO` (stereo partly drawn) [I-1, (2R,3S,5R)-2-(hydroxymethyl)-3-methyl-5-(6-(2-(phenyl(pyridin-2-yl)methylene)hydrazinyl)-9H-purin-9-yl)tetrahydrofuran-3,4-diol], the GI50 in data set [1] (setting [7]) was 48.1 µM; in data set [2] (Homo sapiens, HeLa), 68.9 µM; in data set [3] (setting [8]) it was 57.2 µM; in data set [4] (setting [9]), 43.2 µM; in data set [5] (setting [10]) it was over 100 µM.

For `CC(=NNc1ncnc2c1ncn2C1O[C@H](CO)[C@@](C)(O)[C@H]1O)c1ccccn1` (stereo partly drawn) [I-2, (2R,3S,4R)-2-(hydroxymethyl)-3-methyl-5-(6-(2-(1-(pyridin-2-yl)ethylidene)hydrazinyl)-9H-purin-9-yl)tetrahydrofuran-3,4-diol], the GI50 in data set [1] (setting [7]) was 11 µM; in data set [2] (Homo sapiens, HeLa), 21 µM; in data set [3] (setting [8]), 17.6 µM; in data set [4] (setting [9]), 23 µM; in data set [5] (setting [10]), 13.5 µM.

`CC(=NNc1ncnc2c1ncn2C1O[C@H](CO)[C@@](C)(O)[C@H]1O)c1cccnc1` (stereo partly drawn) [I-3, (2R,3S,4R)-2-(hydroxymethyl)-3-methyl-5-(6-(2-(1-(pyridin-3-yl)ethylidene)hydrazinyl)-9H-purin-9-yl)tetrahydrofuran-3,4-diol]: the GI50 was 12 µM in data set [1] (setting [7]); 17 µM in data set [2] (Homo sapiens, HeLa); 15 µM in data set [3] (setting [8]); 11.2 µM in data set [6] (setting [11]); 2.2 µM in data set [4] (setting [9]); 17 µM in data set [5] (setting [10]).

`C[C@@]1(O)[C@@H](CO)OC(n2cnc3c(NN=Cc4ccccn4)ncnc32)[C@@H]1O` (some centres unmarked) [I-4]: the GI50 in data set [1] (48 h incubation) came out at 6.8 µM; in data set [2] it was 7.6 µM; in data set [3] (48 h incubation) it was 27 µM; in data set [6] (48 h incubation), 3.9 µM; in data set [4] (48 h incubation) it was 7.6 µM; in data set [5] (48 h incubation) it was 22 µM.

Turning to `OC[C@H]1O[C@@H](n2cnc3c(NN=C(c4ccccc4)c4ccccn4)ncnc32)C(O)C1O` (stereo partly drawn) [I-5, (2R,5R)-2-(hydroxymethyl)-5-(6-(2-(phenyl(pyridin-2-yl)methylene)hydrazinyl)-9H-purin-9-yl)tetrahydrofuran-3,4-diol], the GI50 turned out to be 49 µM in data set [1] (setting [7]); 36 µM in data set [2] (Homo sapiens, HeLa); 52.5 µM in data set [3] (setting [8]); 64.5 µM in data set [4] (setting [9]); 44.9 µM in data set [5] (setting [10]).

As to `CC(=NNc1ncnc2c1ncn2[C@@H]1O[C@H](CO)C(O)C1O)c1ccccn1` (stereo partly drawn) [I-6, (2R,5R)-2-(hydroxymethyl)-5-(6-(2-(1-(pyridin-2-yl)ethylidene)hydrazinyl)-9H-purin-9-yl)tetrahydrofuran-3,4-diol], the GI50 in data set [1] (setting [7]) was 11 µM; in data set [2] (Homo sapiens, HeLa) it was 12 µM; in data set [3] (setting [8]), 38 µM; in data set [4] (setting [9]), 14 µM; in data set [5] (setting [10]), 15 µM.

On to `CC(=NNc1ncnc2c1ncn2[C@@H]1O[C@H](CO)C(O)C1O)c1cccnc1` (stereo partly drawn) [I-7, (2R,5R)-2-(hydroxymethyl)-5-(6-(2-(1-(pyridin-3-yl)ethylidene)hydrazinyl)-9H-purin-9-yl)tetrahydrofuran-3,4-diol], for which the GI50 in data set [1] (setting [7]) is 45 µM; in data set [2] (Homo sapiens, HeLa), 25 µM; in data set [3] (setting [8]), 144 µM; in data set [4] (setting [9]) it was 63.3 µM; in data set [5] (setting [10]), 93 µM.

For the compound `CC(=NNc1ncnc2c1ncn2[C@@H]1O[C@H](CO)C(O)C1O)c1ccncc1` (stereo partly drawn) [I-8, (2R,5R)-2-(hydroxymethyl)-5-(6-(2-(1-(pyridin-4-yl)ethylidene)hydrazinyl)-9H-purin-9-yl)tetrahydrofuran-3,4-diol], the GI50 in data set [1] (setting [7]) came to 56 µM; in data set [2] (Homo sapiens, HeLa), 60 µM; in data set [3] (setting [8]), 213 µM; in data set [4] (setting [9]) it was 49.6 µM; in data set [5] (setting [10]), 68 µM.

As for `OC[C@H]1OC(n2cnc3c(NN=Cc4cccnc4)ncnc32)[C@H](O)[C@@H]1O` (some centres unmarked) [I-10], the GI50 is 22 µM in data set [1] (48 h incubation); 18 µM in data set [2]; 18 µM in data set [3] (48 h incubation); 22 µM in data set [6] (48 h incubation); 0.9 µM in data set [4] (48 h incubation); 14 µM in data set [5] (48 h incubation).

On to `OC[C@H]1OC(n2cnc3c(NN=Cc4ccncc4)ncnc32)[C@H](O)[C@@H]1O` (some centres unmarked) [I-11], for which the GI50 in data set [1] (48 h incubation) amounted to 58 µM; in data set [2], 56 µM; in data set [3] (48 h incubation) it was 79 µM; in data set [6] (48 h incubation) it was 71 µM; in data set [4] (48 h incubation), 11 µM; in data set [5] (48 h incubation), 70 µM.

Consider `OC[C@H]1OC(n2cnc3c(NN=C(c4ccccn4)c4ccccn4)ncnc32)[C@H](O)[C@@H]1O` (some centres unmarked) [I-13], for which the GI50 was 0.3 µM in data set [1] (48 h incubation); 0.3 µM in data set [2]; 0.8 µM in data set [3] (48 h incubation); under 1 µM in data set [6] (48 h incubation); 0.2 µM in data set [4] (48 h incubation); 0.9 µM in data set [5] (48 h incubation).

As for `N#Cc1ccccc1C=NNc1ncnc2c1ncn2C1O[C@H](CO)[C@@H](O)[C@H]1O` (stereo partly drawn) [I-14, 2-((2-(9-((3R,4S,5R)-3,4-dihydroxy-5-(hydroxymethyl)tetrahydrofuran-2-yl)-9H-purin-6-yl)hydrazono)methyl)benzonitrile], the GI50 was 0.7 µM in data set [1] (setting [7]); 0.8 µM in data set [2] (Homo sapiens, HeLa); 1.2 µM in data set [3] (setting [8]); under 1 µM in data set [6] (setting [11]); 0.8 µM in data set [4] (setting [9]); 1.9 µM in data set [5] (setting [10]).

As for `Cc1ccc(C=NNc2ncnc3c2ncn3C2O[C@H](CO)[C@@H](O)[C@H]2O)s1` (stereo partly drawn) [I-15, (2R,3S,4R)-2-(hydroxymethyl)-5-(6-(2-((5-methylthiophen-2-yl)methylene)hydrazinyl)-9H-purin-9-yl)tetrahydrofuran-3,4-diol], the GI50 in data set [1] (setting [7]) is 19 µM; in data set [2] (Homo sapiens, HeLa) it was 4.3 µM; in data set [3] (setting [8]), 16 µM; in data set [6] (setting [11]) it was 5 µM; in data set [4] (setting [9]) it was 1.8 µM; in data set [5] (setting [10]), 16 µM.

Turning to `OC[C@H]1OC(n2cnc3c(NN=Cc4ccccc4)ncnc32)[C@H](O)[C@@H]1O` (some centres unmarked) [I-16], the GI50 in data set [1] (48 h incubation) was 15 µM; in data set [2] it was 3 µM; in data set [3] (48 h incubation) it was 13 µM; in data set [6] (48 h incubation), 5.5 µM; in data set [4] (48 h incubation) it was 7.6 µM; in data set [5] (48 h incubation), 10 µM.

Regarding `CC(=NNc1ncnc2c1ncn2C1O[C@H](CO)[C@@H](O)[C@H]1O)c1ccccc1` (stereo partly drawn) [I-17, (2R,3S,4R)-2-(hydroxymethyl)-5-(6-(2-(1-phenylethylidene)hydrazinyl)-9H-purin-9-yl)tetrahydrofuran-3,4-diol], the GI50 in data set [1] (setting [7]) turned out to be 5 µM; in data set [2] (Homo sapiens, HeLa) it was 1.6 µM; in data set [3] (setting [8]), 2.6 µM; in data set [6] (setting [11]) it was 4.6 µM; in data set [4] (setting [9]), 3.1 µM; in data set [5] (setting [10]), 3.1 µM.

For `c1ccc(C(=NNc2ncnc3[nH]cnc23)c2ccccn2)cc1` [I-19, 6-(2-(Phenyl(pyridin-2-yl)methylene)hydrazinyl)-9H-purine], the 50% growth inhibitory concentration (GI50) in data set [1] (setting [7]) was 0.9 µM; in data set [2] (Homo sapiens, HeLa), 1.4 µM; in data set [3] (setting [8]) it was 0.9 µM; in data set [6] (setting [11]), under 1 µM; in data set [4] (setting [9]) it was 0.9 µM; in data set [5] (setting [10]), 0.9 µM.

For the compound `c1ccc(C(=NNc2ncnc3[nH]cnc23)c2ccccn2)nc1` [I-20, 6-(2-(Dipyridin-2-ylmethylene)hydrazinyl)-9H-purine], the GI50 in data set [1] (setting [7]) came out at 0.1 µM.
